Where only a bound is given, the exact number is not on record here.

Assay [1] deals with Aβ42. Description: Screening for γ-secretase-modulating activity, Method 1: Aβ42 sandwich ELISA on SKNBE2 cell media. It is filed as cell-based. To be noted: SKNBE2 cells carrying APP 695 wild type. In outline:
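SKNBE2 cells expressing wild-type APP695 were treated with compound for 18 h in Ultraculture/1% glutamine. Secreted Aβ42 was quantified by sandwich ELISA (C-terminal capture, biotinylated 3D6, TMB, 450 nm), with WST-1 used as a toxicity check. IC50 was derived from 4-parameter fits of % inhibition or % of untreated control.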

In assay [2] the test system is Aβtotal. As to the kind of experiment: Screening for γ-secretase-modulating activity, Method 1: Aβtotal sandwich ELISA on SKNBE2 cell media. It is filed as cell-based. The settings on record: SKNBE2 cells carrying APP 695 wild type. Summed up:
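SKNBE2 cells expressing wild-type APP 695 were treated with compound for 18 hours. Aβtotal in the medium was measured by sandwich ELISA (6E10 capture, biotinylated 4G8 detection, fluorogenic peroxidase read-out). IC50 came from a 4-parameter fit of % inhibition with top/bottom fixed at 100/0 and Hill slope 1, or as averaged IC50 from % of untreated control.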
Background: An ELISA detects its analyte on a solid surface through an enzyme-linked reagent.

For assay [3], the system named is Aβ42. Description: In vivo efficacy Method 1: brain soluble Aβ42 by ELISA. Set-up: species or system mouse. To be noted: Table 4a, single oral dose, overnight fasted animals, sacrificed after 4 h, soluble fraction of brain homogenates. The source says: (§1) To determine whether acute administration of an Aβ42 lowering agent would reduce Aβ42 levels in vivo, non-transgenic rodents, e.g. mice or rats were used. Alternatively, two to three month old Tg2576 mice expressing APP695 containing the “Swedish” variant can be used or a transgenic mouse model developed by Dr. Fred Van Leuven (K.U. Leuven, Belgium) and co-workers, with neuron-specific expression of a clinical mutant of the human amyloid precursor protein [V717I] […] Young transgenic mice have high levels of Aβ in the brain but no detectable Aβ deposition. At approximately 6-8 months of age, the transgenic mice start to display spontaneous, progressive accumulation of β-amyloid (Aβ) in the brain, eventually resulting in amyloid plaques within the subiculum, hippocampus and cortex. Animals treated with the Aβ42 lowering agent were examined and compared to those untreated or treated with vehicle and brain levels of soluble Aβ42 and total Aβ would be quantitated by standard techniques, for example, using ELISA.
(§2) A typical protocol for measuring Aβ42 lowering in vivo is shown but it is only one of many variations that could be used to optimize the levels of detectable Aβ. For example, Aβ42 lowering compounds were formulated in 20% of Captisol® (a sulfobutyl ether of β-cyclodextrin) in water or 20% hydroxypropyl β cyclodextrin. The Aβ42 lowering agents were administered as a single oral dose or by any acceptable route of administration to overnight fasted animals. After 4 h, the animals were sacrificed and Aβ42 levels were analysed.
(§3) Blood was collected by decapitation and exsanguinations in EDTA-treated collection tubes. Blood was centrifuged at 1900 g for 10 minutes (min) at 4° C. and the plasma recovered and flash frozen for later analysis. The brain was removed from the cranium and hindbrain. The cerebellum was removed and the left and right hemisphere were separated. The left hemisphere was stored at −18° C. for quantitative analysis of test compound levels. The right hemisphere was rinsed with phosphate-buffered saline (PBS) buffer and immediately frozen on dry ice and stored at −80° C. until homogenization for biochemical assays.
(§4) All samples were sonicated for 30 seconds on ice at 20% power output (pulse mode). Homogenates were centrifuged at 221.300×g for 50 min. The resulting high speed supernatants were then transferred to fresh tubes and were optionally further purified before the next step. A portion of the supernatant was neutralized with 10% 0.5 M Tris-HCl and this was used to quantify Aβtotal.
(§5) The obtained supernatants were purified with Water Oasis HLB reverse phase columns (Waters Corp., Milford, Mass.) to remove non-specific immunoreactive material from the brain lysates prior subsequent Aβ detection. Using a vacuum manifold, all solutions were passed through the columns at a rate of approximately 1 ml per min, so the vacuum pressure was adjusted accordingly throughout the procedure. Columns were preconditioned with 1 ml of 100% MeOH, before equilibration with 1 ml of H2O, Non-neutralized brain lysates were loaded onto the columns. The loaded samples were then washed twice with the first wash performed with 1 ml of 5% MeOH, and the second wash with 1 ml of 30% MeOH. Finally, the Aβ was eluted from the columns and into 100×30 mm glass tubes, with a solution of 90% MeOH with 2% NH4OH. The eluate was then transferred into 1.5 ml tubes and concentrated in a speed-vac concentrator on high heat for about 1.5-2 h at 70° C. The concentrated Aβ was then resuspended in UltraCULTURE General Purpose Serum-Free Medium (Cambrex Corp., Walkersville, Md.) plus Protease Inhibitors added.
To quantify the amount of Aβ42 in the soluble fraction of the brain homogenates, commercially available Enzyme-Linked-Immunosorbent-Assay (ELISA) kits were used (e.g. Innotest® β-Amyloid(1-42), Innogenetics N.V., Ghent, Belgium). The Aβ42 ELISA was performed using the plate provided with the kit only.

The subject of assay [4] is Aβtotal. As to the kind of experiment: In vivo efficacy Method 1: brain soluble Aβtotal by ELISA. Set-up: species or system mouse. The settings on record: Table 4a, single oral dose, overnight fasted animals, sacrificed after 4 h, soluble fraction of brain homogenates.
Source text: as §1, §2, §3, §4
as §5, with “added. […]” for “added.”

Setting [5] is: Homo sapiens, Table 3a, 18 hours, XLfit, top/bottom fixed to 100 and 0, hill slope 1.
Setting [6] is: Homo sapiens, Table 3b, non-linear regression of % of control, averaged IC50 values.
Where [7] appears, read: Table 3a, 18 hours, XLfit, top/bottom fixed to 100 and 0, hill slope 1.
The mark [8] stands for this setting: Table 3b, non-linear regression of % of control, averaged IC50 values.

In the case of `COc1cc(Nc2cccc3c2nc(-c2ccc(F)cc2F)n3C)ccc1-n1cnc(C)c1` [Compound 3], the half-maximal inhibitory concentration (IC50) (commonly the point on the concentration scale where inhibition reaches its midpoint) is 13 nM in the assay with Aβ42 [1] (setting [5]), 13 nM in the assay on Aβ42 [1] (setting [6]), more than 1000 nM in the assay on Aβtotal [2] (setting [5]) and more than 3000 nM in the assay with Aβtotal [2] (setting [6]). In addition, the “Aβ42 (% Ctrl) _Mean” value in the assay with Aβ42 [3] is reported as 46 % Ctrl. The “Aβtotal (% Ctrl) _Mean” value in the assay on Aβtotal [4] stood at 87 % Ctrl.

Turning to `Cc1cn(-c2ccc(Nc3cccc4c3nc(-c3ccc(F)cc3)n4C)nc2)cn1` [Compound 5], the IC50 with Aβ42 [1] (setting [5]) was 31 nM; in the assay with Aβ42 [1] (setting [6]), 30 nM; with Aβtotal [2] (setting [5]) it was more than 3000 nM; in the assay with Aβtotal [2] (setting [6]), more than 3000 nM. In the assay with Aβ42 [3], the “Aβ42 (% Ctrl) _Mean” value is listed as 62 % Ctrl. Besides, in the assay on Aβtotal [4], the “Aβtotal (% Ctrl) _Mean” value is 94 % Ctrl.

With `Cc1cn(-c2ccc(Nc3cccc4c3nc(-c3ccc(F)cc3)n4C)cc2)cn1` [Compound 7], the half-inhibitory concentration (IC50) is 22 nM with Aβ42 [1] (setting [5]), 23 nM in the assay with Aβ42 [1] (setting [6]), more than 1000 nM with Aβtotal [2] (setting [5]) and more than 3000 nM with Aβtotal [2] (setting [6]). In the assay on Aβ42 [3], the “Aβ42 (% Ctrl) _Mean” value stood at 58 % Ctrl. Further, the “Aβtotal (% Ctrl) _Mean” value in the assay with Aβtotal [4] was found to be 89 % Ctrl.

For the molecule `COc1cc(Nc2cccc3oc(CC(C)C)nc23)ccc1-n1cnc(C)c1` [Compound 18], the IC50 in the assay with Aβ42 [1] (setting [5]) is 101 nM; in the assay on Aβ42 [1] (setting [6]), 102 nM; in the assay on Aβtotal [2] (setting [5]), more than 5000 nM; with Aβtotal [2] (setting [6]), more than 10000 nM. In addition, in the assay on Aβ42 [3], the “Aβ42 (% Ctrl) _Mean” value turned out to be 81 % Ctrl. The “Aβtotal (% Ctrl) _Mean” value in the assay with Aβtotal [4] was 95 % Ctrl.

On to `COc1cc(Nc2cccc3c2nc(C2CCCCC2)n3C)ccc1-n1cnc(C)c1` [Compound 38], for which the IC50 is 104 nM in the assay on Aβ42 [1] (setting [7]), 126 nM with Aβ42 [1] (setting [8]), more than 3000 nM with Aβtotal [2] (setting [7]) and more than 3000 nM in the assay with Aβtotal [2] (setting [8]). The “Aβ42 (% Ctrl) _Mean” value in the assay on Aβ42 [3] is given as 72 % Ctrl. The “Aβtotal (% Ctrl) _Mean” value in the assay on Aβtotal [4] is 101 % Ctrl.

In the case of `COc1cc(Nc2cccc3c2nc(N2CC(C)OC(C)C2)n3C)ccc1-n1cnc(C)c1` (stereo not drawn) [Compound 44], the IC50 in the assay with Aβ42 [1] (setting [7]) was 135 nM; in the assay with Aβ42 [1] (setting [8]), 135 nM; with Aβtotal [2] (setting [7]), more than 5000 nM; in the assay on Aβtotal [2] (setting [8]), more than 5000 nM. Also, the “Aβ42 (% Ctrl) _Mean” value with Aβ42 [3] is 91 % Ctrl. Moreover, the “Aβtotal (% Ctrl) _Mean” value with Aβtotal [4] is given as 101 % Ctrl.

With `COc1cc(Nc2cccc3[nH]c(-c4ccccc4C)nc23)ccc1-n1cnc(C)c1` [Compound 45], the IC50 in the assay with Aβ42 [1] (setting [5]) was 15 nM; in the assay with Aβ42 [1] (setting [6]), 13 nM; in the assay with Aβtotal [2] (setting [5]) it was more than 1000 nM; in the assay on Aβtotal [2] (setting [6]) it was more than 3000 nM. Moreover, in the assay with Aβ42 [3], the “Aβ42 (% Ctrl) _Mean” value came to 93 % Ctrl. Besides, the “Aβtotal (% Ctrl) _Mean” value in the assay on Aβtotal [4] stood at 94 % Ctrl.

Consider `COCCn1c(-c2cccc(OC)c2)nc2c(Nc3ccc(-n4cnc(C)c4)c(OC)c3)cccc21.Cl.Cl` [Compound 54], for which the IC50 is 20 nM in the assay on Aβ42 [1] (setting [7]), 25 nM with Aβ42 [1] (setting [8]), more than 1000 nM with Aβtotal [2] (setting [7]) and more than 3000 nM in the assay with Aβtotal [2] (setting [8]). In the assay with Aβ42 [3], the “Aβ42 (% Ctrl) _Mean” value came out at 71 % Ctrl. The “Aβtotal (% Ctrl) _Mean” value in the assay with Aβtotal [4] stood at 96 % Ctrl.

Consider `Cc1ncn(-c2ccc(Nc3cccc4c3nc(-c3ccc(F)cc3)n4C)cn2)n1` [Compound 70], for which the half-inhibitory concentration (IC50) was 50 nM in the assay with Aβ42 [1] (setting [7]), 37 nM in the assay with Aβ42 [1] (setting [8]), more than 3000 nM with Aβtotal [2] (setting [7]) and more than 3000 nM in the assay on Aβtotal [2] (setting [8]). Moreover, the “Aβ42 (% Ctrl) _Mean” value with Aβ42 [3] is on record as 64 % Ctrl. The “Aβtotal (% Ctrl) _Mean” value in the assay with Aβtotal [4] is given as 99 % Ctrl.

Turning to `COc1cc(Nc2cccc3c2nc(-c2ccc(F)cc2)n3C)ccc1-n1cnc(Br)c1` [Compound 71], the IC50 in the assay on Aβ42 [1] (setting [7]) is 28 nM; in the assay with Aβ42 [1] (setting [8]), 28 nM; in the assay with Aβtotal [2] (setting [7]), more than 1000 nM; in the assay on Aβtotal [2] (setting [8]), more than 3000 nM. Moreover, in the assay with Aβ42 [3], the “Aβ42 (% Ctrl) _Mean” value came out at 88 % Ctrl. In the assay with Aβtotal [4], the “Aβtotal (% Ctrl) _Mean” value stood at 102 % Ctrl.

In the case of `Cc1ncn(-c2ccc(Nc3cccc4c3nc(-c3ccc(F)cc3)n4C(C)C)cc2F)n1.Cl.Cl` [Compound 74], the IC50 in the assay with Aβ42 [1] (setting [7]) is 65 nM; in the assay with Aβ42 [1] (setting [8]), 59 nM; in the assay on Aβtotal [2] (setting [7]), more than 3000 nM; in the assay with Aβtotal [2] (setting [8]), more than 3000 nM. For the same molecule, in the assay on Aβ42 [3], the “Aβ42 (% Ctrl) _Mean” value is recorded as 86 % Ctrl. Further, in the assay on Aβtotal [4], the “Aβtotal (% Ctrl) _Mean” value was 99 % Ctrl.

The values are drawn from patent US8772504B2, “Substituted benzoxazole, benzimidazole, oxazolopyridine and imidazopyridine derivatives as gamma secretase modulators” (Janssen Pharmaceuticals, Inc., priority 2009, dated 2014).
